Experiments:
Assay in all cases: combination Emax (second highest fraction inhibited in the dose matrix, 72 h); higher = more inhibition; extreme values may be limits of the assay
[1] = tested on: CHSA8926 (Chondrosarcoma)
Summary of the method: (§1)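 Bliss excess equals the observed combination effect minus the expected value EA + EB − EA·EB, where EA and EB are the effects of each agent alone. Combination Emax is the second-highest inhibition within the matrix. Inhibition was scaled from CellTiter-Glo 2.0 luminescence, with 0 set by vehicle wells and 1 by blank wells, after 72 hours of two-drug dosing of cells plated in 1536-well plates.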

[2] = tested on: CW-2 (Colorectal Carcinoma)
Summary of the method: as §1

[3] = tested on: DMS-114 (Small Cell Lung Carcinoma)
Summary of the method: as §1

[4] = tested on: ESO51 (Esophageal Adenocarcinoma)
Summary of the method: as §1

G-361 (Melanoma) = tested on: G-361 (Melanoma)
Summary of the method: as §1

[5] = tested on: H9 (T-Cell Non-Hodgkin's Lymphoma)
Summary of the method: as §1

[6] = tested on: HCC1187 (Breast Carcinoma)
Summary of the method: as §1

[7] = tested on: MOG-G-CCM (Low Grade Glioma)
Summary of the method: as §1

[8] = tested on: NCCIT (Other Solid Carcinomas)
Summary of the method: as §1

[9] = tested on: NCI-H661 (Non-Small Cell Lung Carcinoma)
Summary of the method: as §1

[10] = tested on: NCI-H929 (Plasma Cell Myeloma)
Summary of the method: as §1

SJSA-1 (Osteosarcoma) = tested on: SJSA-1 (Osteosarcoma)
Summary of the method: as §1

[11] = tested on: SNU-398 (Hepatocellular Carcinoma)
Summary of the method: as §1

[12] = tested on: T-T (Esophageal Squamous Cell Carcinoma)
Summary of the method: as §1

[13] = tested on: DAN-G (Pancreatic Carcinoma)
Summary of the method: as §1

[14] = tested on: MOLM-13 (Acute Myeloid Leukemia)
Summary of the method: as §1

[15] = tested on: PC-3 (Prostate Carcinoma)
Summary of the method: as §1

[16] = tested on: RPMI-8226 (Plasma Cell Myeloma)
Summary of the method: as §1

[17] = tested on: SUP-B15 (B-Lymphoblastic Leukemia)
Summary of the method: as §1

| Structure (SMILES) | combination Emax [1] | combination Emax [2] | combination Emax [3] | combination Emax [4] | combination Emax (G-361 (Melanoma)) | combination Emax [5] | combination Emax [6] | combination Emax [7] | combination Emax [8] | combination Emax [9] | combination Emax [10] | combination Emax (SJSA-1 (Osteosarcoma)) | combination Emax [11] | combination Emax [12] | combination Emax [13] | combination Emax [14] | combination Emax [15] | combination Emax [16] | combination Emax [17] |
| --- | --- | --- | --- | --- | --- | --- | --- | --- | --- | --- | --- | --- | --- | --- | --- | --- | --- | --- | --- |
| CCc1c2c(nc3ccc(O)cc13)-c1cc3c(c(=O)n1C2)COC(=O)[C@]3(O)CC [SN-38] + O=C(c1cc(Cc2n[nH]c(=O)c3ccccc23)ccc1F)N1CCN(C(=O)C2CC2)CC1 [Olaparib] (first compound max 0.3 µM, 7x7, partner max 10 µM) | 0.452 | 0.604 | 0.491 | 0.624 | 0.459 | 1 | 0.467 | 0.49 | 0.274 | 0.548 | 0.95 | 0.804 | 0.255 | 0.835 | – | – | – | – | – |
| NC1(C(=O)N[C@@H](CCO)c2ccc(Cl)cc2)CCN(c2ncnc3[nH]ccc23)CC1 [Capivasertib] + COc1nnc2ccc(N3CCC(c4ccc(OCCN5CCN(C)C(=O)[C@H]5C)cc4)CC3)nn12 [AZD5153] (first compound max 10 µM, 7x7, partner max 1 µM) | 0.48 | 0.559 | 0.529 | 0.622 | 0.891 | 1 | 0.309 | 0.834 | 0.873 | 0.454 | 1 | 0.727 | 0.565 | 0.527 | 0.466 | 1 | 0.45 | 0.878 | 1 |
| CS(=O)(=O)CCNCc1ccc(-c2ccc3ncnc(Nc4ccc(OCc5cccc(F)c5)c(Cl)c4)c3c2)o1 [Lapatinib] + Cn1cnc2c(F)c(Nc3ccc(Br)cc3Cl)c(C(=O)NOCCO)cc21 [Selumetinib] (first compound max 10 µM, 7x7, partner max 10 µM) | – | 0.576 | 0.437 | – | – | – | – | 0.257 | 0.255 | – | 0.707 | 0.422 | – | 0.843 | – | – | – | – | – |
| NC1(C(=O)N[C@@H](CCO)c2ccc(Cl)cc2)CCN(c2ncnc3[nH]ccc23)CC1 [Capivasertib] + CC(=O)c1c(C)c2cnc(Nc3ccc(N4CCNCC4)cn3)nc2n(C2CCCC2)c1=O [Palbociclib] (first compound max 10 µM, 7x7, partner max 10 µM) | 0.48 | 0.445 | 0.284 | 0.356 | 0.443 | 0.985 | 0.257 | 0.501 | 0.537 | 0.368 | 1 | 0.51 | 0.472 | 0.344 | 0.355 | 0.98 | 0.376 | 0.483 | 0.94 |
| CC(=O)c1c(C)c2cnc(Nc3ccc(N4CCNCC4)cn3)nc2n(C2CCCC2)c1=O [Palbociclib] + CC1(C)CCC(CN2CCN(c3ccc(C(=O)NS(=O)(=O)c4ccc(NCC5CCOCC5)c([N+](=O)[O-])c4)c(Oc4cnc5[nH]ccc5c4)c3)CC2)=C(c2ccc(Cl)cc2)C1 [Venetoclax] (first compound max 10 µM, 7x7, partner max 1 µM) | 0.188 | 0.336 | 0.209 | 0.288 | 0.488 | 0.626 | 0.198 | 0.136 | 0.279 | 0.0364 | 0.356 | 0.276 | 0.326 | 0.242 | 0.178 | 1 | 0.1 | 0.387 | 0.989 |
| CS(=O)(=O)CCNCc1ccc(-c2ccc3ncnc(Nc4ccc(OCc5cccc(F)c5)c(Cl)c4)c3c2)o1 [Lapatinib] + C[C@@H](Oc1cc(-c2cnn(C3CCNCC3)c2)cnc1N)c1c(Cl)ccc(F)c1Cl [Crizotinib] (first compound max 10 µM, 7x7, partner max 10 µM) | 0.928 | 0.708 | 0.893 | 0.997 | 0.972 | 0.983 | 0.715 | 0.745 | 0.599 | 0.703 | 0.97 | 0.908 | 0.77 | 0.938 | 0.991 | 0.996 | 0.494 | 0.679 | 0.963 |
| CC(=O)c1c(C)c2cnc(Nc3ccc(N4CCNCC4)cn3)nc2n(C2CCCC2)c1=O [Palbociclib] + Cc1c2c(nn1C)CSCc1cc(n(C)n1)CSc1cc(c3ccccc3c1)OCCCc1c(C(=O)O)n(C)c3c-2c(Cl)ccc13 [AZD5991] (first compound max 10 µM, 7x7, partner max 1 µM) | 0.289 | 0.451 | 0.49 | 0.218 | 0.743 | 0.742 | 1 | 0.169 | 0.809 | 0.631 | 1 | 0.351 | 0.944 | 0.799 | 0.222 | 1 | 0.169 | 0.939 | 0.986 |
| Cc1nc(Nc2ncc(C(=O)Nc3c(C)cccc3Cl)s2)cc(N2CCN(CCO)CC2)n1 [Dasatinib] + CC(=O)Nc1cccc(-n2c(=O)n(C3CC3)c(=O)c3c(Nc4ccc(I)cc4F)n(C)c(=O)c(C)c32)c1 [Trametinib] (first compound max 2 µM, 7x7, partner max 1 µM) | 0.823 | 0.551 | 0.326 | 0.949 | 0.753 | 0.892 | 0.137 | 0.741 | 0.366 | 0.502 | 0.992 | 0.522 | 0.501 | 0.5 | 0.962 | 0.955 | 0.243 | 0.239 | 0.952 |
| NC1(C(=O)N[C@@H](CCO)c2ccc(Cl)cc2)CCN(c2ncnc3[nH]ccc23)CC1 [Capivasertib] + CC(C)n1c(=O)n(C)c2cnc3cc(F)c(-c4ccc(OCCCN5CCCCC5)nc4)cc3c21 [AZD1390] (first compound max 10 µM, 7x7, partner max 0.3 µM) | 0.379 | 0.274 | 0.442 | 0.246 | 0.282 | 0.78 | 0.296 | 0.485 | 0.54 | 0.245 | 1 | 0.406 | 0.25 | 0.282 | 0.292 | 0.739 | 0.322 | 0.135 | 0.398 |
| NC1(C(=O)N[C@@H](CCO)c2ccc(Cl)cc2)CCN(c2ncnc3[nH]ccc23)CC1 [Capivasertib] + C[C@@H]1COCCN1C2=NC(=NC(=C2)C3(CC3)[S@](=N)(=O)C)C4=C5C=CNC5=NC=C4 [AZD6738] (first compound max 10 µM, 7x7, partner max 10 µM) | 0.54 | 0.542 | 0.623 | 0.817 | 0.614 | 1 | 0.51 | 0.787 | 0.66 | 0.569 | 1 | 0.713 | 0.752 | 0.389 | 0.721 | 0.982 | 0.593 | 0.875 | 0.986 |
| NC1(C(=O)N[C@@H](CCO)c2ccc(Cl)cc2)CCN(c2ncnc3[nH]ccc23)CC1 [Capivasertib] + Cn1cnc2c(F)c(Nc3ccc(Br)cc3Cl)c(C(=O)NOCCO)cc21 [Selumetinib] (first compound max 10 µM, 7x7, partner max 10 µM) | 0.48 | 0.482 | 0.456 | 0.624 | 0.83 | 1 | 0.296 | 0.548 | 0.55 | 0.427 | 1 | 0.658 | 0.472 | 0.429 | 0.65 | 0.986 | 0.258 | 0.43 | 0.805 |
| NC1(C(=O)N[C@@H](CCO)c2ccc(Cl)cc2)CCN(c2ncnc3[nH]ccc23)CC1 [Capivasertib] + CCN(CCO)CCCOc1ccc2c(Nc3cc(CC(=O)Nc4cccc(F)c4)[nH]n3)ncnc2c1 [AZD2811] (first compound max 10 µM, 7x7, partner max 1 µM) | 0.46 | 0.288 | 0.456 | 0.248 | 0.46 | 1 | 0.833 | 0.67 | 0.624 | 0.36 | 1 | 0.489 | 0.542 | 0.331 | 0.43 | 0.993 | 0.401 | 0.422 | 0.929 |
| CC(=O)c1c(C)c2cnc(Nc3ccc(N4CCNCC4)cn3)nc2n(C2CCCC2)c1=O [Palbociclib] + Cn1cnc2c(F)c(Nc3ccc(Br)cc3Cl)c(C(=O)NOCCO)cc21 [Selumetinib] (first compound max 10 µM, 7x7, partner max 10 µM) | 0.178 | 0.451 | 0.264 | 0.601 | 0.721 | 0.956 | 0.129 | 0.157 | 0.276 | 0.119 | 0.79 | 0.424 | 0.376 | 0.46 | 0.43 | 0.982 | 0.145 | 0.547 | 0.661 |
